What was measured:
[1] = In vitro skin retention, Franz diffusion cells; format: in vitro ADME, rat; conditions: after 24 hours
Method: (§1) In order to determine if the penetration and retention of full-length α-MSH could be augmented in vitro by formulations containing compounds known to improve this process, we conducted in vitro studies with 36 different formulations of α-MSH. The α-MSH powder was weighed directly into a 2 mL graduated glass vial and dissolved in water. Measured volumes of the respective vehicles were dissolved in the solution to achieve the desired percentage (w/v) of α-MSH. Hairless rats were euthanized, skin from the dorsal surface was excised, and the adherent fat and subcutaneous tissue were removed. The skin was mounted on Franz diffusion cells with the stratum corneum facing the donor compartment. The volume of the donor and receptor cells was 2.0 and 5.0 mL, respectively.
For the retention studies, the donor cell was removed, and the excess formulation was removed from the surface of the skin by gently wiping with a cotton swab dipped in 50% ethanol. […] The α-MSH content of each sample was analyzed by HPLC. […]
(§2) Analysis of α-MSH in permeation and retention studies conducted in vitro with skin from hairless rats was performed using an HPLC system (Waters Corp, Milford, Mass.) operated by Millennium software. […] The α-MSH content in the samples was determined using the UV detector set at 230 nm, and the detection limit was determined to be 0.1 μg/mL. […]

[2] = system: DNFB-induced allergic contact dermatitis; assay: Histology (H&E) of ear tissue in the ACD model; format: in vivo, mouse; design: key to score of relative inflammation (infiltrate grade): (1+) representing few lymphocytes and eosinophils above baseline levels that are scattered around blood vessels; (2+) representing increased perivascular infiltrate; (3+) representing intense perivascular infiltrate extending slightly into the interstitial collagen between vessels within the papillary dermis; (4+) representing intense diffuse lymphocytic infiltrate throughout the papillary dermis; conditions: 96 hours after DNFB challenge
Method: (§3) Mice examined in the allergic contact dermatitis model were euthanized 96 hours after challenge with DNFB, and the left and right ears were excised. Ears were fixed in alcoholic formalin and embedded in paraffin. Cross-sections were cut through the center of each ear anterior to posterior. Ears were stained using hematoxylin and eosin (H&E). Additionally, the inflammatory markers CD3 and ICAM-1 were stained using rat anti-mouse primary antibodies (0.2 μg/mL and 1.0 μg/mL, respectively) and detected with a mouse-absorbed goat anti-rat'horseradish peroxidase-conjugated secondary antibody (1.0 μg/mL). Endogenous peroxidase activity was blocked with H2O2 before antibody incubations and DAB exposure, and then the marker-stained slides were counterstained with Mayer's hematoxylin blued with dilute ammonium hydroxide. The sections of each ear were photographed at representative sites using a light microscope (Zeiss Axio Imager; Zeiss, Thornwood, N.Y.) with an attached digital camera (Axiocam MRc, Zeiss, Thornwood, N.Y.) operated by Zeiss AxioVision 4.6.
Mice used in the allergic contact dermatitis model were euthanized 96 hours after challenge with DNFB (72 hours after initiation of topical treatment), and the left and right ears were excised, fixed with formalin, and embedded in paraffin. Cross-sections of the middle of each ear (same position) were cut at a thickness of 4 μm and stained with hematoxylin and eosin (H&E). […] Microscopic measurements of thickness were made at 5 equidistant points on each of the photographed H&E sections. All values are expressed as mean±SD. All differences were statistically significant as determined by ANOVA for pair-wise comparison (P<0.05).
Overall, the allergic contact dermatitis hypersensitivity response developed intense perivascular lymphoid infiltrate extending into the papillary dermis with little or no change in the epidermis at 96 hours following challenge. In all samples generally >90% of the inflammatory infiltrate consisted of lymphocytes and <10% consisted of eosinophils. […]

CD3 = assay: Immunohistochemistry of ear tissue in the ACD model, CD3; format: in vivo, mouse; conditions: ear tissue after three days of treatment, 96 hours after DNFB challenge
Method: as §3
To assay inflammation, ear tissue of the mice was excised 96 hours after challenge with DNFB, fixed in formalin, and embedded in paraffin. […]

[3] = system: DNFB-induced allergic contact dermatitis; assay: Murine allergic contact dermatitis (ACD) model, ear swelling by micrometer; format: in vivo, mouse; conditions: concentration of 0.25% α-MSH versus 0.125% and 0.5%; topical formulations including MF21
Method: Allergic contact dermatitis was induced as previously described (8, 16). Mice were sensitized on day 0 by applying 25 μL of 0.5% DNFB in 4:1 acetone/olive oil on the shaved abdomen. Mice were challenged on day 5 with a single topical application of 15 μL of 0.2% DNFB in 4:1 acetone/olive oil on the right ear in order to induce an ACD response. The left ears were treated with a single topical application of the matched vehicle alone (4:1 acetone/olive oil) to serve as an internal control for the experiments. Beginning on day 6 (24 hours after challenge), the right ears were treated with 15 μL of topically applied α-MSH formulations or 0.5 mM dexamethasone solution and the left ears of the same mice were topically applied with the corresponding matched vehicle. […] Commercial ointment products were topically applied 20 μL per treatment as measured with a syringe and spread evenly with an applicator stick. […] The ACD response was determined by the degree of ear swelling of the hapten-exposed ear (right) compared to that of the matched vehicle-treated contra-lateral ear (left) before DNFB challenge and at 24, 48, 72, and 96 hours after challenge, as measured with a micrometer (7309, Mitutoyo, Tokyo, Japan). Percent change was determined based on 100% thickness 24 hours after challenge. […]

[4] = In vitro skin permeation, Franz diffusion cells; format: in vitro ADME, rat
Method: as §1
Permeation of α-MSH in these formulations was measured by applying the formulation (200 μL) on the skin surface in the donor compartment, sealed with aluminum foil and Parafilm®. […] After 24 hours, the receptor compartment was sampled, and α-MSH content was analyzed by HPLC.
as §2

In the case of “Ac-Ser-Tyr-Ser-Met-Glu-His-Phe-Arg-Trp-Gly-Lys-Pro-Val [α-MSH]”, the “α-MSH retained per gram of skin (epidermis)” value ([1]; in aqueous TRANSCUTOL, LABRASOL, or propylene glycol) is reported as 0.4-0.5 mg per gram of skin, the “α-MSH retained per gram of skin (epidermis)” value ([1]; in aqueous ethanol) is reported as 1.8 mg per gram of skin and the “score of relative inflammation (infiltrate grade)” value [2] is reported as 1+. The “inflammatory (lymphoid) infiltrate in H&E sections” value ([2]; three days of treatment twice per day) was “relatively low retention of inflammatory infiltrate”, the “ear swelling in H&E sections” value ([2]; three days of treatment twice per day, FIG. 4) was “complete alleviation of swelling down to slightly below baseline thickness” and the “expression of the CD3 marker antigen in the lymphocytic infiltrate” value (CD3) was “greatly reduced”. The “reduction in ear swelling, α-MSH dose response” value [3] was “optimal reduction in ear swelling”, the “permeation through the skin barrier” value ([4]; aqueous α-MSH in the absence of TRANSCUTOL and NMP, after 24 hours) was “did not permeate through the skin barrier at all” and the “α-MSH penetrated through 1.0 cm^2 of skin” value ([4]; vehicles ethanol, propylene glycol, TRANSCUTOL and LABRASOL (all four), hairless rat skin in vitro) was 6.5 to 7.0 µg.
